Assay results from patent publication US20230271949A1, “GLP-1R MODULATING COMPOUNDS” (ASCLETIS BIOSCIENCE CO., LTD., priority 2022, published 2023).

Biological target: GLP-1R (Homo sapiens, UniProt P43220)
Experiment: GLP-1R agonist cAMP stimulation assay (HTRF cAMP)
Assay type: cell-based
Conditions: HEK293 cell line expressing GLP-1 target; HTRF cAMP agonist mode, 30 min at RT
Outline: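 GLP-1R-expressing cells were stimulated with 10-point, 3-fold compound dilutions for 30 min at RT; HTRF cAMP detection reagents were then added for 60 min and the 665/615 ratio read. Ratios were converted to cAMP via a standard curve and % activity scaled between DMSO and top-concentration GLP-1(7-37) reference wells.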

Sequence of GLP-1R (P43220 24-463): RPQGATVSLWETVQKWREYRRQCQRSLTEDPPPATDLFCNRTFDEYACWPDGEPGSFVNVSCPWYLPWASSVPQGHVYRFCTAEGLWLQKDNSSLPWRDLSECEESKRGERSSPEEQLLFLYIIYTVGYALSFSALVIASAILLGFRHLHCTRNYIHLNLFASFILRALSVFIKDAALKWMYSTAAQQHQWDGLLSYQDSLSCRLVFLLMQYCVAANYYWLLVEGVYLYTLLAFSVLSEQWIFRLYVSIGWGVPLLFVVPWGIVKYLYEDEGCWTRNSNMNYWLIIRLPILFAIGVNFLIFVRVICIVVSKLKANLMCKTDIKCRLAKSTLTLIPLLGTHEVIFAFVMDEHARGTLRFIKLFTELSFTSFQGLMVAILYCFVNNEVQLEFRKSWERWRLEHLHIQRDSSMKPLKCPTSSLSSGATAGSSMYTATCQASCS

| Compound | EC50 |
| --- | --- |
| Cc1n[nH]c2c(C(F)F)cc(NC(=O)c3ccc4c(c3)nc(CN3CC=C(c5cccc(OCc6ccc(Cl)c7cc(Cl)oc67)n5)CC3)n4C[C@@H]3CCO3)cc12 [Compound 352] | 1.03 nM |
| O=C(Nc1ccc2nc(CN3CC=C(c4cccc(OCc5ccc(Cl)cc5F)n4)CC3)n(C[C@@H]3CCO3)c2c1)c1cc(F)c2[nH]ncc2c1 [Compound 283] | 10.2 nM |
| Cc1cc(C(=O)Nc2ccc3c(c2)nc(CN2CCC(c4cccc5c4OC(C)(c4ccc(Cl)cc4F)O5)CC2)n3C[C@@H]2CCO2)cc2c1NC(=O)C21CC1 (some centres unmarked) [Compound 343] | 0.54 nM |
| Cc1cc2c(C#N)ccc(COc3cccc(C4=CCN(Cc5nc6cc(NC(=O)c7cc(F)c8[nH]nc(C)c8c7)ccc6n5C[C@@H]5CCO5)CC4)n3)c2o1 [Compound 360] | 0.19 nM |
| Cc1n[nH]c2c(C)cc(C(=O)Nc3ccc4c(c3)nc(CN3CC=C(c5cccc(OCc6ccc(C#N)c7cc(Cl)oc67)n5)CC3)n4C[C@@H]3CCO3)cc12 [Compound 357] | 0.41 nM |
| Cc1n[nH]c2ccc(C(=O)Nc3ccc4nc(CN5CC=C(c6cccc(OCc7ccc(C#N)cc7F)n6)CC5)n(CC5CCO5)c4c3)cc12 (centres unmarked) [Compound 290] | 1.2 nM |
| O=C(Nc1ccc2[nH]ncc2c1)c1ccc2c(c1)nc(CN1CC=C(c3cccc(OCc4ccc(Cl)cc4F)n3)CC1)n2C[C@@H]1CCO1 [Compound 141] | 3.29 nM |
| O=C(Nc1ccc2[nH]nc(Cl)c2c1)c1ccc2nc(CN3CC=C(c4cccc(OCc5ccc(Cl)cc5F)n4)CC3)n(CC3CCO3)c2c1 (centres unmarked) [Compound 269] | 10.8 nM |
| COCCn1c(CN2CCC(c3cccc(OCc4ccc(Cl)cc4F)n3)CC2)nc2cc(C(=O)NCc3cccc(O)c3)ccc21 [Compound 32] | 112 nM |
| Cc1n[nH]c2cnc(C(=O)Nc3ccc4c(c3)nc(CN3CC=C(c5cccc(OCc6ccc(Cl)cc6F)n5)CC3)n4C[C@@H]3CCO3)cc12 [Compound 237] | 8.71 nM |
| Cc1n[nH]c2ccc(C(=O)Nc3ccc4c(c3)nc(CN3CC=C(c5cccc(OCc6ccc(Cl)cn6)n5)CC3)n4C[C@@H]3CCO3)cc12 [Compound 198] | 0.35 nM |
| COC(=O)[C@@H]1CC(F)(F)CN1C(=O)CNC(=O)c1ccc2c(c1)nc(CN1CC=C(c3cccc(OCc4ccc(Cl)cc4F)n3)CC1)n2C[C@@H]1CCO1 [Compound 69] | 70.5 nM |
| Cc1n[nH]c2c(C3CC3)cc(NC(=O)c3ccc4c(c3)nc(CN3CCC(c5cccc(OCc6ccc(Cl)cc6F)n5)CC3)n4C[C@@H]3CCO3)cc12 [Compound 118] | 8.31 nM |
| Cc1n[nH]c2ccc(NC(=O)c3ccc4c(c3)nc(CN3CCC(c5cccc6c5OC(C)(c5ccc(Cl)cc5F)O6)CC3)n4CC3CCO3)cc12 (centres unmarked) [Compound 336] | 1.03 nM |
| O=C(N[C@@H](Cc1cnc[nH]1)C(=O)O)c1ccc2c(c1)nc(CN1CCC(c3cccc(OCc4ccc(Cl)cc4F)n3)CC1)n2C[C@@H]1CCO1 [Compound 53] | 114 nM |
| O=C(Nc1ccn2nccc2c1)c1ccc2c(c1)nc(CN1CC=C(c3cccc(OCc4ccc(Cl)cc4F)n3)CC1)n2CC1CCO1 (centres unmarked) [Compound 148] | 21.1 nM |
| COC(=O)[C@@H]1C[C@H](O)CN1C(=O)CNC(=O)c1ccc2c(c1)nc(CN1CCC(c3cccc(OCc4ccc(Cl)cc4F)n3)CC1)n2C[C@@H]1CCO1 [Compound 63] | 0.49 nM |
| COCCn1c(Cc2ccc(-c3cccc(OCc4ccc(C#N)cc4F)n3)cc2-c2nccn2C)nc2cc(C(=O)NCCc3ccc(S(N)(=O)=O)cc3)ccc21 [Compound 29] | > 10000 nM |
| O=C(Nc1ccn2ncc(Cl)c2c1)c1ccc2c(c1)nc(CN1CCC(c3cccc(OCc4ccc(Cl)cc4F)n3)CC1)n2CC1CCO1 (centres unmarked) [Compound 97] | 140 nM |
| COCCn1c(CN2CCC(c3cccc(OCc4ccc(Cl)cc4F)n3)CC2)nc2cc(C(=O)NCC(CC(=O)O)c3ccccc3)ccc21 (centres unmarked) [Compound 41] | 376 nM |
| Cc1c(C#N)sc(COc2cccc(C3=CCN(Cc4nc5cc(NC(=O)c6ccc7[nH]nc(C)c7c6)ccc5n4C[C@@H]4CCO4)CC3)n2)c1F [Compound 361] | 0.9 nM |
| C=C(C)c1n[nH]c2ccc(C(=O)Nc3ccc4c(c3)nc(CN3CC=C(c5cccc6c5OC(C)(c5ccc(Cl)cc5F)O6)CC3)n4CC3CCO3)cc12 (centres unmarked) [Compound 315] | 1.03 nM |
| COc1n[nH]c2ccc(NC(=O)c3ccc4c(c3)nc(CN3CC=C(c5cccc(OCc6ccc(Cl)cc6F)n5)CC3)n4C[C@@H]3CCO3)cc12 [Compound 138] | 8.92 nM |
| Cc1n[nH]c2c(Cl)cc(NC(=O)c3ccc4c(c3)nc(CN3CCC(c5cccc6c5OC(C)(c5ccc(Cl)cc5F)O6)CC3)n4CC3CCO3)cc12 (centres unmarked) [Compound 338] | 1.32 nM |

Second part, the compound after the results:

| EC50 | Compound |
| --- | --- |
| 1.02 nM | CC1(c2ccc(Cl)cc2F)Oc2cccc(C3=CCN(Cc4nc5cc(C(=O)Nc6ccc7[nH]nc(C8CC8)c7c6)ccc5n4CC4CCO4)CC3)c2O1 (centres unmarked) [Compound 294] |
| 1.14 nM | N#Cc1ccc(COc2cccc(C3CCN(Cc4nc5cc(C(=O)Nc6cc(F)c7[nH]ncc7c6)ccc5n4C[C@@H]4CCO4)CC3)n2)c(F)c1 [Compound 129] |
| 1.03 nM | O=C(Nc1ccc2c(c1)nc(C1CC13CCC(c1cccc(OCc4ccc(Cl)cc4F)n1)CC3)n2CC1CCO1)c1ccc2[nH]nc(C3CC3)c2c1 (centres unmarked) [Compound 252] |
| 1.63 nM | Cc1n[nH]c2c(C(F)F)cc(NC(=O)c3ccc4c(c3)nc(CN3CC=C(c5cccc(OCc6ccc(Cl)cc6F)n5)CC3)n4C[C@@H]3CCO3)cc12 [Compound 172] |
| 4.38 nM | O=C(Nc1cc(C(F)(F)F)c2[nH]nc(C3CC3)c2c1)c1ccc2c(c1)nc(CN1CCC(c3cccc(OCc4ccc(Cl)cc4F)n3)CC1)n2C[C@@H]1CCO1 [Compound 113] |
| 3.41 nM | Cc1cc(NC(=O)c2ccc3c(c2)nc(CN2CCC(c4cccc(OCc5cc(F)c(C#N)s5)n4)CC2)n3C[C@@H]2CCO2)cc2c(C(F)(F)F)n[nH]c12 [Compound 377] |
| 4.36 nM | N#Cc1ccc(COc2cccc(C3CCN(Cc4nc5cc(C(=O)NCC(=O)N6C[C@@H](F)C[C@H]6C(=O)O)ccc5n4C[C@@H]4CCO4)CC3)n2)c(F)c1 [Compound 44] |
| 0.14 nM | Cc1n[nH]c2ccc(C(=O)Nc3ccc4c(c3)nc(CN3CC=C(c5cccc(OCc6ccc(Cl)cc6F)n5)CC3)n4C[C@@H]3CCO3)cc12 [Compound 4, (S)—N-(2-((6-((4-chloro-2-fluorobenzyl)oxy)-3′,6′-dihydro-[2,4′-bipyridin]-1′(2′H)-yl)methyl)-1-(oxetan-2-ylmethyl)-1H-benzo[d]imidazol-5-yl)-3-methyl-1H-indazole-5-carboxamide] |
| 0.3 nM | N#Cc1ccc(COc2cccc(C3CCN(Cc4nc5cc(C(=O)Nc6ccc7c(c6)C6(CC6)C(=O)N7)ccc5n4C[C@@H]4CCO4)CC3)n2)c(F)c1 [Compound 128] |
| 42.4 nM | Cn1cc2cc(NC(=O)c3ccc4c(c3)nc(CN3CCC(c5cccc(OCc6ccc(Cl)cc6F)n5)CC3)n4C[C@@H]3CCO3)ccc2n1 [Compound 99] |
| 116 nM | N#Cc1n[nH]c2ccc(NC(=O)c3ccc4c(c3)nc(CN3CCC(c5cccc(OCc6ccc(Cl)cc6F)n5)CC3)n4C[C@@H]3CCO3)cc12 [Compound 82] |
| 1.26 nM | Cc1cc(C(=O)Nc2ccc3c(c2)nc(CN2CC=C(c4cccc(OCc5ccc(C#N)cc5F)n4)CC2)n3C[C@@H]2CCO2)cc2c(C(F)F)n[nH]c12 [Compound 228] |
| 256 nM | COCCn1c(CN2CCC(c3cccc(OCc4ccc(Cl)cc4F)n3)CC2)nc2cc(C(=O)NC3Cc4cc(C)c(O)cc4C3)ccc21 (centres unmarked) [Compound 43] |
| 2.13 nM | Cc1n[nH]c2cc(F)c(C(=O)Nc3ccc4c(c3)nc(CN3CC=C(c5cccc(OCc6ccc(Cl)cc6F)n5)CC3)n4C[C@@H]3CCO3)cc12 [Compound 221] |
